Laboratory results from ChEMBL document CHEMBL1201862, “PubChem BioAssay data set” (2004).
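In this assay, cells in 96-well plates receive the compound at five concentrations for 48 hours. Endpoints are linearly interpolated between the surrounding concentrations. GI50: concentration for 50% inhibition of growth.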 Calls of active or inactive are those of the source. Rule as the data show it: active = GI50 up to about 1.1 µM and inactive = higher.

Key:
Test in all cases: NCI-60 cell line screen, 48 h
DU-145 = test system: DU-145
M14 = test system: M14
SK-MEL-28 = test system: SK-MEL-28
SF-268 = test system: SF-268
SR = test system: SR
SK-MEL-5 = test system: SK-MEL-5
COLO 205 = test system: COLO 205
786-0 = test system: 786-0
U-251 = test system: U-251
A549 = test system: A549
SNB-19 = test system: SNB-19
CCRF-CEM = test system: CCRF-CEM
OVCAR-5 = test system: OVCAR-5
T47D = test system: T47D
SF-295 = test system: SF-295
Malme-3M = test system: Malme-3M
MDA-MB-435 = test system: MDA-MB-435
EKVX = test system: EKVX
HCT-116 = test system: HCT-116
PC-3 = test system: PC-3
HT-29 = test system: HT-29
UACC-62 = test system: UACC-62
SN12C = test system: SN12C
MDA-N = test system: MDA-N
RXF 393 = test system: RXF 393
TK-10 = test system: TK-10
LOX IMVI = test system: LOX IMVI
SK-MEL-2 = test system: SK-MEL-2
SNB-75 = test system: SNB-75
IGROV-1 = test system: IGROV-1
KM12 = test system: KM12
HL-60 = test system: HL-60
A498 = test system: A498
MOLT-4 = test system: MOLT-4
UACC-257 = test system: UACC-257
MDA-MB-231 = test system: MDA-MB-231
HCT-15 = test system: HCT-15
NCI/ADR-RES = test system: NCI/ADR-RES
Hs-578T = test system: Hs-578T
NCI-H522 = test system: NCI-H522
NCI-H226 = test system: NCI-H226
OVCAR-4 = test system: OVCAR-4
CAKI-1 = test system: CAKI-1
HCC 2998 = test system: HCC 2998
OVCAR-8 = test system: OVCAR-8
SK-OV-3 = test system: SK-OV-3
RPMI-8226 = test system: RPMI-8226
MCF7 = test system: MCF7
K562 = test system: K562
HOP-92 = test system: HOP-92
SF-539 = test system: SF-539
NCI-H23 = test system: NCI-H23
OVCAR-3 = test system: OVCAR-3
ACHN = test system: ACHN
SW-620 = test system: SW-620
BT-549 = test system: BT-549
HOP-62 = test system: HOP-62
NCI-H460 = test system: NCI-H460
UO-31 = test system: UO-31

SMILES: Nc1c2cc3ccc2nc2ccc(cc12)OCCOCCOCCOCCOCCOCCO3
- GI50 (DU-145): > 10 µM (inactive)
- GI50 (M14): > 10 µM (inactive)
- GI50 (SK-MEL-28): > 10 µM (inactive)
- GI50 (SF-268): > 10 µM (inactive)
- GI50 (SR): > 10 µM (inactive)
- GI50 (SK-MEL-5): > 10 µM (inactive)
- GI50 (COLO 205): > 10 µM (inactive)
- GI50 (786-0): > 10 µM (inactive)
- GI50 (U-251): > 10 µM (inactive)
- GI50 (A549): > 10 µM (inactive)
- GI50 (SNB-19): > 10 µM (inactive)
- GI50 (CCRF-CEM): > 10 µM (inactive)
- GI50 (OVCAR-5): > 10 µM (inactive)
- GI50 (T47D): > 10 µM (inactive)
- GI50 (SF-295): > 10 µM (inactive)
- GI50 (Malme-3M): > 10 µM (inactive)
- GI50 (MDA-MB-435): > 10 µM (inactive)
- GI50 (EKVX): > 10 µM (inactive)
- GI50 (HCT-116): > 10 µM (inactive)
- GI50 (PC-3): > 10 µM (inactive)
- GI50 (HT-29): > 10 µM (inactive)
- GI50 (UACC-62): > 10 µM (inactive)
- GI50 (SN12C): > 10 µM (inactive)
- GI50 (MDA-N): > 10 µM (inactive)
- GI50 (RXF 393): > 10 µM (inactive)
- GI50 (TK-10): > 10 µM (inactive)
- GI50 (LOX IMVI): > 10 µM (inactive)
- GI50 (SK-MEL-2): > 10 µM (inactive)
- GI50 (SNB-75): > 10 µM (inactive)
- GI50 (IGROV-1): > 10 µM (inactive)
- GI50 (KM12): > 10 µM (inactive)
- GI50 (HL-60): > 10 µM (inactive)
- GI50 (A498): > 10 µM (inactive)
- GI50 (MOLT-4): > 10 µM (inactive)
- GI50 (UACC-257): > 10 µM (inactive)
- GI50 (MDA-MB-231): > 10 µM (inactive)
- GI50 (HCT-15): > 10 µM
- GI50 (NCI/ADR-RES): > 10 µM (inactive)
- GI50 (Hs-578T): > 10 µM (inactive)
- GI50 (NCI-H522): > 10 µM (inactive)
- GI50 (NCI-H226): > 10 µM (inactive)
- GI50 (OVCAR-4): > 10 µM (inactive)
- GI50 (CAKI-1): > 10 µM (inactive)
- GI50 (HCC 2998): > 10 µM (inactive)
- GI50 (OVCAR-8): > 10 µM (inactive)
- GI50 (SK-OV-3): > 10 µM (inactive)
- GI50 (RPMI-8226): > 10 µM (inactive)
- GI50 (MCF7): > 10 µM (inactive)
- GI50 (K562): > 10 µM (inactive)
- GI50 (HOP-92): > 10 µM (inactive)
- GI50 (SF-539): > 10 µM (inactive)
- GI50 (NCI-H23): > 10 µM (inactive)
- GI50 (OVCAR-3): > 10 µM (inactive)
- GI50 (ACHN): > 10 µM (inactive)
- GI50 (SW-620): > 10 µM (inactive)
- GI50 (BT-549): > 10 µM (inactive)
- GI50 (HOP-62): > 10 µM (inactive)
- GI50 (NCI-H460): > 10 µM (inactive)

SMILES: O=[N+]([O-])c1ccc(Oc2c(Cl)cc(S(=O)(=O)N/C(=N\O)Nc3ccc(Cl)cc3)cc2Cl)c(Cl)c1
- GI50 (DU-145): 13.6 µM (inactive)
- GI50 (M14): 16.5 µM (inactive)
- GI50 (SK-MEL-28): 21.6 µM (inactive)
- GI50 (SF-268): 13.6 µM (inactive)
- GI50 (SR): 10.7 µM (inactive)
- GI50 (SK-MEL-5): 16.9 µM (inactive)
- GI50 (COLO 205): 18.8 µM (inactive)
- GI50 (786-0): 14.7 µM (inactive)
- GI50 (U-251): 15.4 µM (inactive)
- GI50 (A549): 17.1 µM (inactive)
- GI50 (SNB-19): 16.9 µM (inactive)
- GI50 (CCRF-CEM): 27.3 µM (inactive)
- GI50 (OVCAR-5): 19.5 µM (inactive)
- GI50 (T47D): 13.1 µM (inactive)
- GI50 (SF-295): 17.3 µM (inactive)
- GI50 (Malme-3M): 14.6 µM (inactive)
- GI50 (MDA-MB-435): 16.6 µM (inactive)
- GI50 (EKVX): 14.8 µM (inactive)
- GI50 (HCT-116): 13.4 µM (inactive)
- GI50 (PC-3): 13.3 µM (inactive)
- GI50 (HT-29): 16.9 µM (inactive)
- GI50 (UACC-62): 14.4 µM (inactive)
- GI50 (SN12C): 14.3 µM (inactive)
- GI50 (MDA-N): 15.6 µM (inactive)
- GI50 (RXF 393): 13.2 µM (inactive)
- GI50 (TK-10): 16 µM (inactive)
- GI50 (LOX IMVI): 17.1 µM (inactive)
- GI50 (SK-MEL-2): 17 µM (inactive)
- GI50 (KM12): 13.7 µM (inactive)
- GI50 (HL-60): 26.2 µM (inactive)
- GI50 (A498): 12.7 µM (inactive)
- GI50 (MOLT-4): 10.8 µM (inactive)
- GI50 (UACC-257): 15.6 µM (inactive)
- GI50 (MDA-MB-231): 17 µM (inactive)
- GI50 (HCT-15): 16.3 µM
- GI50 (NCI/ADR-RES): 21.7 µM (inactive)
- GI50 (Hs-578T): 13.7 µM (inactive)
- GI50 (NCI-H522): 13 µM (inactive)
- GI50 (NCI-H226): 25.3 µM (inactive)
- GI50 (OVCAR-4): 11.7 µM (inactive)
- GI50 (CAKI-1): 14.8 µM (inactive)
- GI50 (UO-31): 13.7 µM (inactive)
- GI50 (HCC 2998): 16 µM (inactive)
- GI50 (OVCAR-8): 22.8 µM (inactive)
- GI50 (RPMI-8226): 15.2 µM (inactive)
- GI50 (MCF7): 17.2 µM (inactive)
- GI50 (K562): 15.8 µM (inactive)
- GI50 (HOP-92): 12.8 µM (inactive)
- GI50 (SF-539): 20.3 µM (inactive)
- GI50 (NCI-H23): 17.7 µM (inactive)
- GI50 (OVCAR-3): 12.2 µM (inactive)
- GI50 (ACHN): 15 µM (inactive)
- GI50 (SW-620): 24.9 µM (inactive)
- GI50 (BT-549): 14.8 µM (inactive)
- GI50 (HOP-62): 16.5 µM (inactive)
- GI50 (NCI-H460): 15.6 µM (inactive)
